Among the test systems are 786-0; A549; ACHN; BT-549; CCRF-CEM; DU-145; HCT-15; HOP-92; MDA-MB-435; Malme-3M; NCI-H522; NCI/ADR-RES; OVCAR-8; SK-MEL-28; SN12C; SNB-75; SW-620; T47D; COLO 205; MCF7.
Holding throughout (assay): DTP human tumour cell line panel, 48 h

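Five concentrations, 48 hours, 96-well plates. The concentration for 50% growth inhibition is given as GI50.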 The source made the active and inactive calls. Rule as the data show it: active = GI50 up to about 1.1 µM and inactive = higher. A value given as a limit tells only on which side of the number the result lay.

Consider `CN(C)CN1CSC(=S)N(CN(C)C)C1`, for which the GI50 in the experiment with 786-0 was 43 µM (inactive); in the experiment with A549, > 100 µM (inactive); in the experiment with ACHN it was > 100 µM (inactive); with BT-549, > 100 µM (inactive); with CCRF-CEM, 8.15 µM (inactive); with DU-145, > 100 µM (inactive). Further, the GI50 with HCT-15 was greater than 100 µM; with HOP-92, > 100 µM (inactive); in the experiment on MDA-MB-435, > 100 µM (inactive); in the experiment on Malme-3M, > 100 µM (inactive); with NCI-H522 it was 42 µM (inactive); with NCI/ADR-RES, > 100 µM (inactive). Also, the GI50 in the experiment with OVCAR-8 was > 100 µM (inactive); with SK-MEL-28, > 100 µM (inactive); with SN12C, > 100 µM (inactive); in the experiment with SNB-75, 58.2 µM (inactive); in the experiment on SW-620 it was > 100 µM (inactive); with T47D, > 100 µM (inactive).
As for `Cc1ccc(S(=O)(=O)c2[nH]cc(/C(=C\C3CCCCC3)[N+](=O)[O-])c2C2CCCCC2)cc1`, the GI50 in the experiment with 786-0 is 0.199 µM (active); with A549, 1.71 µM (inactive); in the experiment on ACHN it was 0.366 µM (active); with BT-549, 0.28 µM (active); in the experiment with CCRF-CEM, 0.272 µM (active); in the experiment on COLO 205 it was 0.25 µM (active). The concentration for 50% growth inhibition (GI50) in the experiment with DU-145 is 0.596 µM (active); in the experiment on HCT-15, 0.199 µM; in the experiment on HOP-92, 0.292 µM (active); with MDA-MB-435, 0.398 µM (active); in the experiment with Malme-3M, 0.564 µM (active); in the experiment with NCI-H522 it was 0.208 µM (active). Also, the GI50 in the experiment with NCI/ADR-RES was 0.426 µM (active); with OVCAR-8, 0.368 µM (active); with SK-MEL-28, 0.802 µM (active); in the experiment on SN12C it was 0.211 µM (active); in the experiment on SNB-75, 1.82 µM (inactive); with SW-620, 0.376 µM (active). In addition, the GI50 in the experiment on T47D is 0.303 µM (active).
Regarding `O=c1[nH]c(=O)n(C2CC(O)C(CO)O2)cc1OCC1CCCCC1` (stereo not drawn), the GI50 in the experiment on 786-0, in the experiment with A549, in the experiment on ACHN, in the experiment with BT-549, with CCRF-CEM and with COLO 205 was > 100 µM (inactive) throughout. For the same molecule, the GI50 in the experiment with DU-145 was > 100 µM (inactive); with HCT-15, greater than 100 µM; in the experiment with MCF7, > 100 µM (inactive); with MDA-MB-435, > 100 µM (inactive); with Malme-3M, > 100 µM (inactive); with NCI-H522 it was > 100 µM (inactive). The GI50 in the experiment on NCI/ADR-RES, in the experiment on OVCAR-8, with SK-MEL-28, with SN12C, in the experiment with SNB-75 and with T47D was > 100 µM (inactive) in each case.
Take `CCCCCCOc1ccc(NC2=C(Cl)C(=O)c3ncccc3C2=O)cc1`: the GI50 is 2.22 µM (inactive) in the experiment on 786-0; 2.49 µM (inactive) in the experiment on A549; > 10 µM (inactive) in the experiment on ACHN; 1.76 µM (inactive) in the experiment with BT-549; 1.21 µM (inactive) in the experiment with CCRF-CEM; 1.5 µM (inactive) with DU-145. The GI50 in the experiment on HCT-15 is 2.02 µM; with HOP-92, > 10 µM (inactive); in the experiment on MCF7, 1.11 µM (active); with MDA-MB-435, 1.7 µM (inactive); in the experiment on Malme-3M it was 1.91 µM (inactive); with OVCAR-8 it was 3.43 µM (inactive). For the same molecule, the GI50 with SK-MEL-28 is 1.64 µM (inactive); in the experiment with SN12C, 1.67 µM (inactive); in the experiment with SNB-75, 1.99 µM (inactive); with SW-620, 1.83 µM (inactive); in the experiment on T47D, 1.68 µM (inactive).
Consider `O=C1CCCC2C(O)CCC[C@H]12` (stereo partly drawn), for which the GI50 with 786-0, with A549, with ACHN, in the experiment with BT-549, in the experiment with CCRF-CEM and in the experiment with COLO 205 was > 100 µM (inactive) each time. The GI50 in the experiment on DU-145 was > 100 µM (inactive); in the experiment on HCT-15, greater than 100 µM; with MCF7 it was > 100 µM (inactive); with Malme-3M it was > 100 µM (inactive); in the experiment on NCI-H522, > 100 µM (inactive); in the experiment with NCI/ADR-RES it was > 100 µM (inactive). Moreover, the GI50 in the experiment with OVCAR-8, in the experiment with SK-MEL-28, with SN12C, with SNB-75, with SW-620 and in the experiment with T47D was > 100 µM (inactive) throughout.
Take `CC1=C2C3=C(C)C(=O)C(C)(C)CC[C@@]3(C)[C@]2(C)CCC(C)(C)C1=O`: the GI50 in the experiment with 786-0, in the experiment on A549, with ACHN, with BT-549, in the experiment with CCRF-CEM and with COLO 205 was > 100 µM (inactive) in each case. Besides, the GI50 with DU-145 was > 100 µM (inactive); with HCT-15 it was greater than 100 µM; with MCF7 it was > 100 µM (inactive); with MDA-MB-435 it was > 100 µM (inactive); in the experiment on Malme-3M, > 100 µM (inactive); in the experiment on NCI-H522, > 100 µM (inactive). Moreover, the GI50 in the experiment on NCI/ADR-RES, in the experiment on OVCAR-8, in the experiment on SN12C, in the experiment with SNB-75, with SW-620 and with T47D was > 100 µM (inactive) throughout.
Consider `CC(=O)O[C@H]1CC[C@@]2(C)C(=CC[C@@H]3[C@@H]2CC[C@]2(C)c4nc(N)c(C#N)cc4C[C@@H]32)C1`, for which the GI50 with 786-0 is 28.7 µM (inactive); in the experiment with A549, 25.9 µM (inactive); in the experiment on ACHN it was 26.4 µM (inactive); in the experiment on BT-549, 33.3 µM (inactive); with CCRF-CEM, 14 µM (inactive); in the experiment with COLO 205 it was 20.2 µM (inactive). Also, the GI50 in the experiment on DU-145 is 40.7 µM (inactive); in the experiment with HCT-15, 2.94 µM; in the experiment with HOP-92, 33 µM (inactive); with MCF7 it was 33.6 µM (inactive); in the experiment with MDA-MB-435, 33.7 µM (inactive); in the experiment with Malme-3M, 41.5 µM (inactive). Further, the GI50 was 12.6 µM (inactive) in the experiment with NCI-H522; 30.3 µM (inactive) with OVCAR-8; 40 µM (inactive) in the experiment with SK-MEL-28; 36.9 µM (inactive) with SN12C; 7.96 µM (inactive) in the experiment with SNB-75; 43.4 µM (inactive) with SW-620. The GI50 with T47D was 11.4 µM (inactive).
Take `Cc1c2ccncc2cc2c1sc1ccncc12`: the GI50 is 2.06 µM (inactive) in the experiment with 786-0; 0.845 µM (active) in the experiment with A549; 1.06 µM (active) with ACHN; 2.49 µM (inactive) with BT-549; 1.21 µM (inactive) in the experiment on CCRF-CEM; 3.24 µM (inactive) with COLO 205. The GI50 with DU-145 was 1.97 µM (inactive); in the experiment with HCT-15, 1.9 µM; with HOP-92 it was 8.22 µM (inactive); in the experiment with MCF7, 0.41 µM (active); in the experiment on Malme-3M, 4.16 µM (inactive); in the experiment with NCI-H522, 2.14 µM (inactive). For the same molecule, the GI50 in the experiment on OVCAR-8 is 2.61 µM (inactive); in the experiment with SK-MEL-28 it was 5.82 µM (inactive); in the experiment on SN12C, 2 µM (inactive); in the experiment with SNB-75, 3.8 µM (inactive); with SW-620, 1.45 µM (inactive); with T47D, 2.04 µM (inactive).
Consider `C[C@@H]1[C@@H](c2ccccc2)O[B-](c2ccccc2)(c2ccccc2)[N+]1(C)C`, for which the GI50 with 786-0 is 66.7 µM (inactive); in the experiment with A549 it was > 100 µM (inactive); in the experiment on ACHN it was 50.1 µM (inactive); in the experiment with BT-549 it was 43.6 µM (inactive); in the experiment with CCRF-CEM it was 61.4 µM (inactive); in the experiment on COLO 205, 33 µM (inactive). Moreover, the GI50 was > 100 µM (inactive) with DU-145; 58.7 µM in the experiment with HCT-15; 25.4 µM (inactive) with HOP-92; 98.6 µM (inactive) in the experiment on MDA-MB-435; 78 µM (inactive) in the experiment with Malme-3M; 58.2 µM (inactive) with NCI-H522. For the same molecule, the GI50 in the experiment with NCI/ADR-RES was > 100 µM (inactive); in the experiment on OVCAR-8 it was 99.5 µM (inactive); with SK-MEL-28, 58.3 µM (inactive); in the experiment on SN12C, > 100 µM (inactive); in the experiment with SW-620, 62.7 µM (inactive); in the experiment on T47D, 54.5 µM (inactive).
As for `Cc1ncc([N+](=O)[O-])n1CCNC(=O)CCCn1ccnc1[N+](=O)[O-]`, the GI50 in the experiment on 786-0, with A549, in the experiment with ACHN, with BT-549, with CCRF-CEM and with COLO 205 was > 100 µM (inactive) each time. For the same molecule, the GI50 in the experiment with DU-145 was > 100 µM (inactive); in the experiment on HCT-15, greater than 100 µM; in the experiment on MCF7, > 100 µM (inactive); in the experiment on MDA-MB-435, > 100 µM (inactive); with Malme-3M it was > 100 µM (inactive); with OVCAR-8, > 100 µM (inactive). The GI50 in the experiment on SK-MEL-28, with SN12C, in the experiment with SNB-75, in the experiment with SW-620 and in the experiment with T47D was > 100 µM (inactive) each time.
On to `CC(C)=CCC/C(C)=C/COc1c2ccoc2cc2oc(=O)ccc12` [BERGAMOTTIN], for which the GI50 is 32.4 µM (inactive) in the experiment with 786-0; 24.9 µM (inactive) in the experiment on A549; 22.8 µM (inactive) in the experiment with ACHN; 44.3 µM (inactive) in the experiment on BT-549; 18 µM (inactive) in the experiment with CCRF-CEM; 17.5 µM (inactive) in the experiment on COLO 205. Besides, the GI50 in the experiment on HCT-15 is 30.4 µM; with HOP-92, 50.2 µM (inactive); in the experiment with MCF7, 19.1 µM (inactive); in the experiment on MDA-MB-435 it was 34.6 µM (inactive); with Malme-3M, 33.5 µM (inactive); with NCI-H522, 19 µM (inactive). Further, the GI50 was 35 µM (inactive) in the experiment with NCI/ADR-RES; 43.7 µM (inactive) in the experiment on OVCAR-8; 59.2 µM (inactive) with SK-MEL-28; 38.3 µM (inactive) with SN12C; 37.8 µM (inactive) in the experiment with SW-620; 19.3 µM (inactive) in the experiment with T47D.

Values taken from ChEMBL document CHEMBL1201862, “PubChem BioAssay data set” (2004).
